Assay results as given in ChEMBL document CHEMBL5500330, “Novel thiazolidin-4-one benzenesulfonamide hybrids as PPARγ agonists: Design, synthesis and in vivo anti-diabetic evaluation” (Eur J Med Chem, 2024).

What was measured:
[1] = Acute toxicity in male Albino mouse assessed as mortality at upto 2000 mg/kg, po measured upto 7 days; assay type: organism-based; conditions: in vivo, 168 h, time < 7 day
[2] = target: T1, Peroxisome proliferator-activated receptor delta (Homo sapiens, UniProt Q03181); test: Agonist activity at human PPAR delta by luciferase reporter gene assay
T1 sequence (Q03181 whole entry): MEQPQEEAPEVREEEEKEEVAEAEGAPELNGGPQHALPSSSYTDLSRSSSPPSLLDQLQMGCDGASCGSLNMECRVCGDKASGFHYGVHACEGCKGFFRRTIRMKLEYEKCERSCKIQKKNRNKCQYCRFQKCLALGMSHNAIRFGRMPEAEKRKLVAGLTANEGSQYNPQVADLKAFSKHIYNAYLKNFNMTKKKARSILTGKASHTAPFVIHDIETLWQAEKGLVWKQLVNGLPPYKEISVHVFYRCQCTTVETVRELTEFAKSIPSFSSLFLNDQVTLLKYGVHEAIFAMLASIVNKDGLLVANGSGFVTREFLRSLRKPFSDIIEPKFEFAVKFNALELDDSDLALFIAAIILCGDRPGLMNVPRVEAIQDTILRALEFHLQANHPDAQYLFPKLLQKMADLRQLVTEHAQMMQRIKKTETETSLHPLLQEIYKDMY

[3] = target: T2, Peroxisome proliferator-activated receptor alpha (Homo sapiens, UniProt Q07869); test: Agonist activity at human PPAR alpha by luciferase reporter gene assay
T2 sequence (Q07869 whole entry): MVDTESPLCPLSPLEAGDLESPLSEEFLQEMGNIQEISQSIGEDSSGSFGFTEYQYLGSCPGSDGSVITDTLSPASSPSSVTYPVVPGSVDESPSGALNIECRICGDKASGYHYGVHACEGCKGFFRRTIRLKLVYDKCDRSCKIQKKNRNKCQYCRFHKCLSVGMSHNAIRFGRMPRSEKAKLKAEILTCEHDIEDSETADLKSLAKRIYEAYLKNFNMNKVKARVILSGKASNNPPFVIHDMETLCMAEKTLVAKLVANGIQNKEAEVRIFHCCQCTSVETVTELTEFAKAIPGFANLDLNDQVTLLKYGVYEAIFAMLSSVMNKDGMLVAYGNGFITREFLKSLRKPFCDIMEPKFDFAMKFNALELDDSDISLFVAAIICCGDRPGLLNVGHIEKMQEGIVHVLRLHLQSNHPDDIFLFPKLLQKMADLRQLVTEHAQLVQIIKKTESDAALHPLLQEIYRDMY

[4] = test system: Rattus norvegicus; test: Antidiabetic activity against NA-STZ induced Wistar rat model of type 2 diabetes assessed as decrease in blood glucose level at 36 mg/kg, po measured after 21 days relative to control; assay type: functional; design: scale not given: the % may be the effect or the level left; conditions: time 21 day
[5] = test system: Rattus norvegicus; test: Antidiabetic activity against STZ induced Albino Wistar rat diabetic model assessed as hypoglycaemic effect at 36 mg/kg, po administered as single dose and measured after 15 days; assay type: functional; conditions: time 15 day
[6] = test system: Rattus norvegicus; test: Antidiabetic activity against NA-STZ induced Wistar rat model of type 2 diabetes assessed as increase in C-peptide level at 36 mg/kg, po measured after 21 days by ELISA method relative to control; assay type: functional; conditions: time 21 day
[7] = target: T3, Peroxisome proliferator-activated receptor gamma (Homo sapiens, UniProt P37231); test: Agonist activity at human PPAR gamma by luciferase reporter gene assay
T3 sequence (P37231 whole entry): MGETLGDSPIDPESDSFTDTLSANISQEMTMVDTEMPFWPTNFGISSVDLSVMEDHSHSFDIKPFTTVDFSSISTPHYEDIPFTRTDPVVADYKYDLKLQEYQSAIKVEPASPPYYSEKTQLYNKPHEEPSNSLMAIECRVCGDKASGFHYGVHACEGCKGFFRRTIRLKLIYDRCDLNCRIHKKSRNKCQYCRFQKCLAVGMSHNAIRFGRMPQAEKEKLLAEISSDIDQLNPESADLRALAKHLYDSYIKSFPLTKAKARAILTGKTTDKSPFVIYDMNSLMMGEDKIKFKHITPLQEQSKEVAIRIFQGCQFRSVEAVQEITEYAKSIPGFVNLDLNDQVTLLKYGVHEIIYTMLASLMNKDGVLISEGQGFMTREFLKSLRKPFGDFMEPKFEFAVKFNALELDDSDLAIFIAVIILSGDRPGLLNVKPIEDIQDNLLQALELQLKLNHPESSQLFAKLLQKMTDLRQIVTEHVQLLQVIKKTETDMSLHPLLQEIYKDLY

| Compound | Activity [1] | EC50 [2] [µM] | EC50 [3] [µM] | Activity [4] [%] | Activity [5] [mg/dL] | Activity [6] [%] | EC50 [7] [µM] |
| --- | --- | --- | --- | --- | --- | --- | --- |
| NS(=O)(=O)c1ccc(NC2=NC(=O)/C(=C/c3ccc(OCc4ccc(Cl)cc4)cc3)S2)cc1 | Toxic | 35.2 |  |  |  |  |  |
| COc1cc(/C=C2\SC(Nc3ccc(S(N)(=O)=O)cc3)=NC2=O)ccc1OCc1ccc(C)cc1 | Toxic | 48.1 | 40.9 |  |  |  |  |
| CCc1ccc(CCOc2ccc(CC3SC(=O)NC3=O)cc2)nc1 (stereo not given) [PIOGLITAZONE] |  |  |  | 35 | 132.2 | 38.6 |  |
| COc1cccc(COc2ccc(/C=C3\SC(Nc4ccc(S(N)(=O)=O)cc4)=NC3=O)cc2OC)c1 | Non-Toxic | 15.4 |  |  |  |  | 3.98 |
| COc1cc(/C=C2\SC(Nc3ccc(S(N)(=O)=O)cc3)=NC2=O)ccc1OCCc1ccccc1 | Toxic | 16.3 |  |  |  |  | 11.1 |
| COc1cccc(COc2cc(/C=C3\SC(Nc4ccc(S(N)(=O)=O)cc4)=NC3=O)ccc2OC)c1 | Non-Toxic |  | 22.7 |  |  |  | 2.94 |
| NS(=O)(=O)c1ccc(-n2cc(/C=C3\SC(=O)NC3=O)c(-c3ccc4ccccc4c3)n2)cc1 |  |  |  |  | 134.1 |  |  |
| CC(C)(Oc1ccc(CCNC(=O)c2ccc(Cl)cc2)cc1)C(=O)O [BEZAFIBRATE] |  | 25.9 |  |  |  |  | 83.3 |
